Source: US20240189265A1, “COMPOSITIONS AND TECHNIQUES FOR VAGINAL INSERTION” (Daré Bioscience, Inc., priority 2021, published 2024)

Tests used:
[1] = Solubility of drug substance in simulated vaginal fluid; assay type: physicochemical; settings: fassgf or other biorelevant
[2] = Compatibility of Diclofenac Sodium in Gel Formulation 1; assay type: physicochemical; settings: 2%, 3% gels, viscosity, pH, appearance
Source text: Variation in pH was reported between prototypes but was expected due to the chemical nature of the API.

solubility [1]: ~16 µg/mL
compatibility with the Gel Formulation 1 composition [2]: Compatible
Compound: O=C(O)Cc1ccccc1Nc1c(Cl)cccc1Cl [Diclofenac Sodium]
